Reference: article PMC11239005, “Preclinical studies of RA475, a guanidine-substituted spirocyclic candidate RPN13/ADRM1 inhibitor for treatment of ovarian cancer” (PLOS ONE, 2024)

Experiments:
MDA-MB-468 = assay: MTT cytotoxicity assay, MDA-MB-468; assay type: cell-based; conditions: Homo sapiens, MDA-MB-468, 72 h
Description: (§1) All cell lines were obtained from the American Type Culture Collection (ATCC) and cultured in the specified medium supplemented with 10% fetal bovine serum, 100 IU/mL penicillin, and 100 μg/mL streptomycin at 37°C in a humidified 5% CO2/95% air incubator. Synthesis of new compounds is described in S1 File, and >95% purity of RA475, Up284 and its analogs were confirmed by NMR and MS. To assess drug cytotoxicity, cells were seeded at 2,500 cells/well (10,000 cells/well for MM lines) in 100 μL medium in 96-well plate as triplicates and after 24 h treated with compounds for a further 72 h. To assess cytotoxicity, the cells were incubated for 2 h at 37°C according to the manufacturer’s protocol with the Thiazolyl Blue Tetrazolium Bromide (20 μL/well of 5 mg/mL stock solution in water) (Sigma, M5655) and A570 measured using a Benchmark Plus microplate spectrophotometer (BIO-RAD). IC50 was estimated using Graphpad Prism 7 software.

SUM149 = assay: MTT cytotoxicity assay, SUM149; assay type: cell-based; conditions: SUM149, 72 h
Description: as §1

MC38 = assay: MTT cytotoxicity assay, MC38; assay type: cell-based; conditions: Mus musculus, MC-38, MC38, 72 h
Description: as §1

CT26 = assay: MTT cytotoxicity assay, CT26; assay type: cell-based; conditions: Mus musculus, CT26, 72 h
Description: as §1

[1] = tested on: high molecular weight polyubiquitinated proteins in SKOV3 cells; assay: Anti-ubiquitin immunoblot, SKOV3; assay type: cell-based; conditions: Up284 and RA475 0.5 and 1 μM, RA190 1 μM
Source text: Cell lysate prepared in MPER (Pierce) from each sample was normalized by total protein concentration using the bicinchoninic acid assay and bovine serum albumin standards. Normalized samples were subjected to SDS-PAGE, transferred to PVDF membranes and analyzed by Western blot using antibodies specific to ubiquitin (P4D1, sc-8017, Santa Cruz), PARP (#9542, […]), actin (#66009, Protein Tech Group), Tubulin(#66031, Protein Tech Group), ADRM1/RPN13 (D9Z1U, #12019, Cell Signaling), USP14 (Cell Signal, # 8159), Annexin V (#559763, BD Pharmingen), and for secondary antibodies we utilized either horseradish peroxidase (HRP)-linked anti-mouse IgG or anti-rabbit IgG (GE Healthcare UK Ltd), HRP-linked streptavidin (N100, Thermo Fisher) at the recommended dilution (1:5000).
Accumulation of high molecular weight polyubiquitinated proteins (polyUb) is a classical phenomenon of proteasome function inhibition due to the stabilization of its substrate.
Fig 3 Impact of RA475 on proteasome function. […] Actin was used as loading control. […] C) 4T1 and HCC1806 cells stably expressing 4UbFL were treated with compounds at indicated doses for 4 h and imaged by IVIS200 after the addition of luciferin substrate (50 μL, 7mg/mL in PBS). […] After a 4 h incubation, the cells were lysed and the luciferase activity in each cell lysate was determined with a luciferase assay kit (Promega) according to the manufacturer’s instructions. Bioluminescence was measured by using a luminometer (Glomax Multidetection system, Promega) E) A patch was shaved of hair on one leg of CD-1 mice, and 10 μg 4UbFL plasmid in 20 μL of PBS was injected into the quadriceps femoralis muscle followed immediately by injection of the 2 Needle Array to 5 mm depth encompassing the injection site and square wave electroporation (ElectroSquarePorator 833, BTX-2 Needle array 5mm gap, Harvard apparatus) delivered as eight pulses at 106V for 20 ms with 200 ms intervals. […] Equally sized areas were analyzed using Living Image 2.20 software. […]

[2] = Tissue distribution in CD1 mice; assay type: in vivo, mouse; conditions: 24 h; for Concentration in brain: one IV dose 40 mg/kg
Description: For the stability studies and biodistribution studies, plasma or tissue homogenate (20 μL) was extracted with 100 μL of acetonitrile containing the internal standard RA413S (a structural analogue) at 10 ng/mL. Tissue homogenates were prepared at a concentration of 200 mg/mL in PBS. After vortex-mixing and centrifuging for 5 min at 2500 xg, 10 μL of the supernatant was injected into LC-MS/MS system. […] Mobile phase A was water containing 0.1% formic acid, and mobile phase B was acetonitrile containing 0.1% formic acid. The gradient started with mobile phase B at 20% and was held at 20% for 0.5 minutes with a flow rate of 0.3 mL/min, then increased to 100% over 0.5 minutes and held for 2.0 minutes, and finally returned back to 20% mobile phase B and allowed to equilibrate until 4.1minutes. An AB Sciex 5500 triple quadrupole mass spectrometer operated in positive electrospray ionization mode was used for the detection of RA475. The lower limit of quantitation (LLOQ) in plasma was 10 ng/mL.
In a separate experiment to assess drug distribution, CD1 mice were injected with one dose of RA475 (40 mg/kg, IV) and tissues collected after 4 h and 24 h. RA475 levels were analyzed in all major tissues (brain, colon, heart, kidney, liver, lung and spleen) by LC-MS/MS.
Fig 5 Tissue distribution of RA475 and Up284 in mice. Female CD1 mice (n = 3/drug) were treated with one IV dose of A) RA475 (40mg/kg) or B) Up284 (40mg/Kg) and euthanized after 24 h with collection of plasma and tissues including brain, colon, heart, kidney, liver, lung and spleen. RA475 and Up284 concentrations in tissue samples were analyzed by LC-MS/MS. TEXT PRINTED IN THE PICTURE: (A) RA475: RA475 Concentration (ng/mL or ng/g): 161 (Brain) | (B) Up284: Up284 Concentration (ng/mL or ng/g): 9214 (Brain)

Structure (SMILES) | IC50 (MDA-MB-468) [nM] | IC50 (SUM149) [nM] | IC50 (MC38) [nM] | IC50 (CT26) [nM] | accumulation of high molecular weight polyubiquitinated proteins [1] | tissue accumulation ([2]; 40 mg/kg IV) | Concentration in brain [2]
Cl.Cl.N#Cc1ccc(/C=C2/C(=O)/C(=C/c3ccc(C#N)cc3)C23CCN(C(=N)N)CC3)cc1 [RA475, 1,3-bis((E)-4-cyanobenzylidene)-2-oxo-7-azaspiro[3.5]nonane-7-carboximidamide dihydrochloride] | 292 | 100 | 446 | 630 | robust accumulation of polyUb in dose dependent manner | accumulated primarily in kidneys and liver | 161 ng/mL or ng/g
N#Cc1ccc(/C=C2/C(=O)/C(=C/c3ccc(C#N)cc3)C23CCNCC3)cc1 [Up284, reference compound] | 72 | 90 | 60 | 50 | robust accumulation of polyUb | – | 9214 ng/mL or ng/g
